Experimental data as given in patent US20100210816A1, “NMDAR Biomarkers for Diagnosing and Treating Cerebral Ischemia” (priority 2006, published 2010).

Columns and labels:
NR2 antibodies [1] = test: NR2 antibody monitoring in three patients (minor CVA, TIA, ischemic stroke) given oral Trental; format: in vivo, human
Description: The first case was a non-smoker who had previously undergone valve replacement surgery in 1987 and had received a coronary artery stent in 2002. The patient had been treated with coumudin since the first surgery. NR2 antibodies measured at base line were […] the 2 ng/ml cutoff. (FIG. 1). […] At the same time, the patient had complaints on chronic fatigue and numbness in the 4th and 5th digits of their left arm lasting quite a long period of time. […] Antibodies continued to decrease up to 6th mo. after treatment was initiated and remained below the cut off level more than 1 year after therapy.
The second patient was a apparently healthy person. Their blood assay for NR2 antibodies was performed initially on a voluntary basis as a healthy control. […] The patient used Plavix and Lipitor on daily basis as well.
The third patient was an non-smoker who had suffered ischemic stroke on May 28-29, 2002 after angioplasty. They had receiving coumadin, eardizem, atenolol, hytrin, lasix, and guaifinex when they entered the study.

[2] = acute ischemic stroke; non-significant reduction; 95% CI: 0.41, 1.02; cited from earlier work
NR2 antibodies [3] = test: Serial blood NR2 antibody levels over 24 months of aspirin treatment follow up in individuals with DM/AS at high risk for CVA; format: in vivo, human; conditions: for NR2 antibodies, 6 mo.: 6 months; for NR2 antibodies, 0 mo.: base level before treatment
Description: (§1) In this study, serial measurements of blood levels of NR2 antibodies in an out-patient setting in individuals with diabetes mellitus (DM) and atherosclerosis (AS) who are at high risk for subsequent CVA were evaluated to establish whether this biomarker can be used to monitor the efficacy of aspirin treatment. Every person who participated in the study underwent neurological examination and computed tomography (CT) of the brain. The age of the 33 persons (17 male/16 female) ranged from 47-64 yrs (mean 55.7 yrs). Patients with documented 5-10 year history of DM/AS and normal neurological examination without a previous history of neurological event such as transient ischemic attack (TIA), or prolonged reversible ischemic neurological deficit or stroke were observed. Based on laboratory and clinical testing, all participants were at borderline glucose intolerance, with blood glucose levels of 119 to 132 mg/dL, and had complaints on fatigue, low concentration of attention, and numbness in digits of left or right hand.
Out of 22 individuals, 10 (6 male/4 female) were randomly assigned to a placebo group and the rest used daily over-counter aspirin in a dose of 325 mg which formed group 1 (Table 3). None of people of group 1 developed the resistance to aspirin.
NR2 antibodies were detected at a base level for each group before treatment was initiated (0 mo.) and then each following 6 months for two years. […] A TIA event was documented in 1 patient from the placebo group. […] By the end of the study at 24 mo., two out of 9 persons suffered a TIA which developed into an acute ischemic stroke in one patient.

[4] = TIA rate over 24 months of aspirin treatment follow up in individuals with DM/AS; format: in vivo, human; conditions: 24 months follow up
Description: as §1
Out of 22 individuals, 10 (6 male/4 female) were randomly assigned to a placebo group and the rest used daily over-counter aspirin in a dose of 325 mg which formed group 1 (Table 3). […]
NR2 antibodies were detected at a base level for each group before treatment was initiated (0 mo.) and then each following 6 months for two years. […]

[5] = large meta-analysis, BMJ 1994; cited from earlier work
[6] = patients with TIA or minor CVA; cited from earlier work
[7] = Group 1 (not aspirin-resistant, N=12), aspirin 325 mg daily
[8] = Group 2 (resistant to aspirin, N=9), aspirin 325 mg/day

SMILES	Effect on level of NR2 antibodies (NR2 antibodies [1]; person after TIA, oral 200 mg twice a day for 30 days, FIG. 2)	Effect on level of NR2 antibodies (NR2 antibodies [1]; person after ischemic stroke, oral 200 mg x 3 times a day for 60 days, FIG. 3)	Effect on level of NR2 antibodies (NR2 antibodies [1]; person, minor CVA, oral 200 mg twice a day for 30 days, FIG. 1)	Odds ratio of early death [2]	NR2 antibodies, 6 mo. (NR2 antibodies [3]; [7])	NR2 antibodies, 0 mo. (NR2 antibodies [3]; [7])	Change of NR2 antibody levels (NR2 antibodies [3]; Group 1, aspirin 325 mg daily, below cut off of 2 ng/ml, no CVA consequences)	NR2 antibodies, 6 mo. (NR2 antibodies [3]; [8])	NR2 antibodies, 0 mo. (NR2 antibodies [3]; [8])	Change of NR2 antibody levels (NR2 antibodies [3]; Group 2, patients resistant to aspirin, any time during the study)	TIA rate [4, 7]	TIA rate [4, 8]	Reduction of incidence of stroke, myocardial infarction, or vascular death [5]	Reduction of the risk of TIA [6]
CC(=O)CCCCn1c(=O)c2c(ncn2C)n(C)c1=O [Trental, pentoxifylline]	reduced the level of NR2 antibodies to the control level of healthy individuals	reduced the level of NR2 antibodies to the cut off	reduced the level of NR2 antibodies by the end of treatment	0.64										
CC(=O)Oc1ccccc1C(=O)O [aspirin]					2.51 ± 0.28 ng/mL	3.05 ± 0.21 ng/mL	significantly reduced	3.22 ± 0.30 ng/mL	2.87 ± 0.11 ng/mL	no improvement in NR2 antibodies levels	0	2/9	25%	20%
